According to patent US20250109139A1, “TRICYCLIC COMPOUND, AND PREPARATION METHOD THEREFOR AND USE THEREOF” (SHANGHAITECH UNIVERSITY, priority 2022, published 2025):
Like-named read-outs stand apart in the source and are kept apart here. Values belong to the compound of their own block, whether it stands above or below them.

Legend:
dopamine D2 receptors [1] = biological target: T1, dopamine D2 receptors (Homo sapiens (Human), UniProt P14416); assay: Dopamine D2 receptor β-arrestin2 BRET (recruitment); format: cell-based; details: for Emax: relative to endogenous ligand dopamine, read-out: β-arrestin2 BRET Emax % ± SEM
T1 sequence (P14416 whole entry): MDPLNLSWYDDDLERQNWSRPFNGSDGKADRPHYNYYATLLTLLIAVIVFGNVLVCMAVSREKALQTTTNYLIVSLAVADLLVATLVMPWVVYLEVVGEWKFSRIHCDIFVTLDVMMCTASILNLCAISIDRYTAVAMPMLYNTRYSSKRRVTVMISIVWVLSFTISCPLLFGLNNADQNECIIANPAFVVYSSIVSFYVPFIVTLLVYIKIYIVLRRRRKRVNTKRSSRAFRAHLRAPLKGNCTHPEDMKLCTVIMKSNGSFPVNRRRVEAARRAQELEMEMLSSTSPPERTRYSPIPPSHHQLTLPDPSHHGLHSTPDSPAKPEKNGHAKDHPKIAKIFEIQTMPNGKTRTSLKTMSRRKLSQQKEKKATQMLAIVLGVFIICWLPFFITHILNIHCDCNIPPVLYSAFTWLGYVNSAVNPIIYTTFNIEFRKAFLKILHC
Experimental: (§1) To examine the downstream G-protein signaling pathway mediated by dopamine D2 receptors, on the first day, a 6 cm culture dish was used for transfection with 1 μg of dopamine D2 receptors, 1 μg of Gαi1 containing C-terminal seaweed luciferase (Gαi1-Rluc), 1 μg of Gβ3, 1 μg of Gγ9 containing C-terminal green fluorescent protein (Gγ9-GFP) mixed with 16 μL of PEI. At the same time, in order to examine the downstream β-arrestin2 signaling pathway mediated by dopamine D2 receptors, on the first day, a 6 cm culture dish was used for transfection with […] of dopamine D2 receptors containing C-terminal seaweed luciferase (D2-Rluc), […] of G protein-coupled receptor kinase 2 (GRK2), […] of β-arrestin2 containing N-terminal green fluorescent protein (GFP2-ARRB2) mixed with 14 μL of PEI. The next day, the confluent cells of a 6 cm culture dish were digested and reseeded into a 96-well plate with 100 μL of culture medium added to each well. On the third day, the drugs were added for test. The 96-well plate was taken out from the cell incubator to decant the culture medium, 40 μL of the substrate coelenterazine 400a (final concentration of 5 μM) was added to each well, and then 20 μL of different drugs were added sequentially from left to right to ensure that the final concentration of the drug decreased gradually from bottom to top, with two replicates per treatment. Finally, the prepared samples were loaded on machine for test. The machine readout value reflected the recruitment of β-arrestin2 to the membrane or the dissociation of G protein trimer. The former indicated the degree of activation of the β-arrestin2 signaling pathway downstream of the dopamine D2 receptors, and the latter indicated the degree of activation of the G protein signaling pathway downstream of the dopamine D2 receptors.

dopamine D2 receptors [2] = biological target: T1, dopamine D2 receptors; assay: Dopamine D2 receptor Gαi1 BRET (G protein trimer dissociation); format: cell-based; details: for Emax: relative to endogenous ligand dopamine, read-out: Gαi1 BRET Emax % ± SEM
Experimental: as §1

dopamine D2 receptors [3] = biological target: T1, dopamine D2 receptors; assay: Dopamine D2 receptor radioligand competition binding assay ([3H]-Methylspiperone); details: [3H]-Methylspiperone 0.3 to 0.5 nM, 293T membranes
Experimental: The affinity of the compounds of the present disclosure for dopamine D2 receptors was determined by a radioligand competition binding assay.
In the first step, a cell membrane component containing specific dopamine D2 receptors was prepared. A 10 cm culture dish was used for transfection with […] of dopamine D2 receptors and 40 μL of polyethylenimine (PEI hereafter). […] A vacuum pump was used to suck off the culture medium, 3 mL of lysis buffer was added to each culture dish, and the cells were placed in a 4° C. cold room for 10 minutes. After the cells were detached, the cells were transferred to a 15 mL centrifuge tube and centrifuged at 1500 rpm for 5 minutes at 4° C., and the supernatant was discarded. The cell pellet was transferred to a tissue homogenizer, and 3 mL of lysis buffer was added and fully ground until the cells were broken. Then, cell suspension was equally aliquoted into several EP tubes, centrifuged at 12000 rpm for 5 minutes at 4° C., and the supernatant was discarded. The precipitate was the cell membrane component containing the dopamine D2 receptors.
First, a standard binding buffer was added to the cell membrane component containing the dopamine D2 receptors, and the cell membrane was disrupted and resuspended with an electric tissue homogenizer. 30 μL of membrane protein suspension was added to each well of a 96-well plate. Then, 30 μL of different drugs were added to the 96-well plate sequentially from bottom to top to ensure that the final drug concentrations were 10^−5 M, 10^−6 M, 10^−7 M, 10^−8 M, 10^−9 M, and 0 M, with two replicates per treatment. Next, 30 μL of [3H]-Methylspiperone was added to each well of the 96-well plate. The plate was incubated at room temperature in the dark for 2 hours. Detection was conducted. The machine readout value reflected the amount of [3H]-Methylspiperone bound on the membrane, and after further data processing, the affinity Ki values of different compounds for the dopamine D2 receptors were obtained.

[4] = Brain permeability test, single intraperitoneal dose in C57 male mice; format: in vivo; details: intraperitoneal 5 mg/kg
Experimental: Using the same method as that in the pharmacokinetic experiment, 0.030 mL of blood was collected from the orbit of each animal at 0.5 hours, 2.0 hours, and 4.0 hours, and anticoagulated with EDTA-K2. Blood samples were placed on ice after collection, and plasma was separated by centrifugation within 30 minutes (centrifugation conditions: 5000 rpm, 10 minutes, 4° C.). The collected plasma was stored at −80° C. before analysis. […] The homogenate was stored at −80° C. before analysis. Drug concentrations in plasma and brain tissues were analyzed by LC/MS/MS for comparison.

[5] = Pharmacokinetics in SD rats, single dose intragastric and intravenous; format: in vivo; details: male, rat, plasma; for AUC(0-t): read-out: Area under the drug-time curve AUC0-t; for half-life: read-out: Elimination half-life t1/2 (converted); for MRT: read-out: Mean residence time MRT; for Cmax: read-out: Peak drug concentration Cmax
Experimental: Testing of pharmacokinetic properties of compounds administered in a single dose to SD rats by intragastric administration and intravenous injection
After the compound was administered in a single dose to male SD rats, blood samples were collected at different time points. The concentration of the compound in the plasma of the rats was determined by LC-MS/MS and the relevant pharmacokinetic parameters were calculated to investigate the pharmacokinetics of the compound in rats.
Male SD rats were provided by Suzhou JOINN Laboratories Co., Ltd. SD rats were fasted with free access to water for 12 to 14 hours one day before administration, and were fed 4 hours after administration.
For each compound, the […] were divided into two groups: intravenous injection and intragastric administration, with 3 rats in each group. For both intravenous injection (administered at a dose of 3 mg/kg and a concentration of 0.6 mL/kg) and intragastric administration (administered at a dose of 10 mg/kg and a concentration of 1 mL/kg), 5% DMSO+5% Solutol+90% saline was used as the vehicle.
Sample collection: 0.10 mL of blood was collected from the orbit of each animal in IV/PO groups each time at 5 minutes, 15 minutes, 30 minutes, 1 hour, 2 hours, 4 hours, 6 hours, 8 hours, and 24 hours after administration of the test compound, and anticoagulated with EDTA-K2. Blood samples were placed on ice after collection, and plasma was separated by centrifugation within 30 minutes (centrifugation conditions: 5000 rpm, 10 minutes, 4° C.). The collected plasma was stored at −80° C. before analysis.
Data processing: The data acquisition and control system software was Analyst 1.5.1 software (Applied Biosystem). The peak integration method of chromatographic samples was automatic integration; the ratio of the peak area of the sample to the peak area of the internal standard was used as an index for regression with the concentration of the sample. […] Pharmacokinetic parameters were analyzed with a non-compartmental model using WinNonlin Professional v6.3 (Pharsight, USA). Cmax was the measured maximum plasma concentration, the area under the plasma concentration-time curve AUC(0→t) was calculated by the trapezoidal method, and tmax was the time to peak plasma concentration after administration. Experimental data were presented as “Mean±SD” (n≥3) or “Mean” (n=2).

[6] = read-out: β-arrestin2 BRET pEC50 ± SEM (converted)
[7] = unit printed only in Cariprazine cell, read-out: β-arrestin2 BRET EC50
[8] = read-out: Gαi1 BRET pEC50 ± SEM (converted)
[9] = unit printed only in Cariprazine cell, read-out: Gαi1 BRET EC50
[10] = read-out: Affinity pKi ± SEM (converted)
[11] = intravenous injection, dose 10 mg/kg

SMILES: COc1cccc2c3c([nH]c12)CN(CCCCOc1ccc2ccc(=O)[nH]c2c1)CC3 [I-B1, 7-(4-(8-methoxy-1,3,4,9-tetrahydro-2H-pyrido[3,4-b]indol-2-yl)butoxy)quinolin-2(1H)-one]
EC50 (dopamine D2 receptors [1]; [6]): 12 nM | Emax (dopamine D2 receptors [1]): 50% | EC50 (dopamine D2 receptors [1]; [7]): 13.1 nM | EC50 (dopamine D2 receptors [2]; [8]): 102 nM | Emax (dopamine D2 receptors [2]): 22% | EC50 (dopamine D2 receptors [2]; [9]): 233 nM | Ki (dopamine D2 receptors [3]; read-out: Affinity Ki): 362 nM | Ki (dopamine D2 receptors [3]; [10]): 83.2 nM

Emax (dopamine D2 receptors [1]): 90% | EC50 (dopamine D2 receptors [1]; [7]): 0.47 nM | EC50 (dopamine D2 receptors [2]; [8]): 13.2 nM | Emax (dopamine D2 receptors [2]): 41% | EC50 (dopamine D2 receptors [2]; [9]): 13 nM | Ki (dopamine D2 receptors [3]; read-out: Affinity Ki): 282 nM | Ki (dopamine D2 receptors [3]; [10]): 288 nM
SMILES: COc1cccc2c3c([nH]c12)CN(CCCOc1ccc2ccc(=O)[nH]c2c1)CC3 [I-B3, 7-(3-(8-methoxy-1,3,4,9-tetrahydro-2H-pyrido[3,4-b]indol-2-yl)propoxy)quinolin-2(1H)-one]

Emax (dopamine D2 receptors [1]): 127% | EC50 (dopamine D2 receptors [1]; [7]): 20.8 nM | EC50 (dopamine D2 receptors [2]; [8]): 97.7 nM | Emax (dopamine D2 receptors [2]): 64% | EC50 (dopamine D2 receptors [2]; [9]): 96.5 nM | Affinity pKi ± SEM (dopamine D2 receptors [3]): (6.36 ± 0.28) | Ki (dopamine D2 receptors [3]; read-out: Affinity Ki): 438 nM
SMILES: COc1cccc2c1cc1n2CCN(C/C=C/COc2ccc3ccc(=O)[nH]c3c2)C1 [I-C5, (E)-7-((4-(9-methoxy-3,4-dihydropyrazino[1,2-a]indol-2(1H)-yl)but-2-en-1-yl)oxy)quinolin-2(1H)-one]

AUC brain ([4]; brain): 2767 ng·h/mL | Kp at 0.5 h ([4]; male, C57, mouse, brain/plasma, ip, 0.5 h, read-out: 0.5 h ratio (brain/plasma)): 3.05 | Kp at 2 h ([4]; male, C57, mouse, brain/plasma, ip, 2.0 h, read-out: 2.0 h ratio (brain/plasma)): 2.67 | Kp at 4 h ([4]; male, C57, mouse, brain/plasma, ip, 4.0 h, read-out: 4.0 h ratio (brain/plasma)): 2.24 | Kp ([4]; male, C57, mouse, brain/plasma, ip, read-out: AUC ratio (brain/plasma)): 2.71 | concentration at 0.5 h ([4]; male, C57, mouse, 0.5 h, brain, read-out: 0.5 h brain concentration): 1030 ± 96 ng/mL | concentration at 0.5 h ([4]; male, C57, mouse, 0.5 h, plasma, read-out: 0.5 h plasma concentration): 336 ± 28 ng/mL | concentration at 2 h ([4]; male, C57, mouse, 2.0 h, brain, read-out: 2.0 h brain concentration): 714 ± 143 ng/mL | concentration at 2 h ([4]; male, C57, mouse, 2.0 h, plasma, read-out: 2.0 h plasma concentration): 267 ± 47 ng/mL | concentration at 4 h ([4]; male, C57, mouse, 4.0 h, brain, read-out: 4.0 h brain concentration): 491 ± 80 ng/mL | concentration at 4 h ([4]; male, C57, mouse, 4.0 h, plasma, read-out: 4.0 h plasma concentration): 219 ± 15 ng/mL | AUC ([4]; male, C57, mouse, ip, plasma): 1020 ng·h/mL | Vd ([5]; intravenous injection, dose 10 mg/kg, read-out: Apparent volume of distribution Vdss): 4.75 ± 0.4 L/kg | AUC(0-t) [5, 11]: 2520 ± 446 ng·h/mL | clearance ([5]; intravenous injection, dose 10 mg/kg, read-out: Clearance CL): 20.1 ± 3.6 mL/min/kg | half-life [5, 11]: 220 ± 6 min | MRT [5, 11]: 3.98 ± 0.4 h | Cmax [5, 11]: 765 ± 74 ng/mL | AUC(0-t) ([5]; oral administration, 10 mg/kg): 10400 ± 1180 ng·h/mL | bioavailability ([5]; oral administration, 10 mg/kg, read-out: Bioavailability F): 123 ± 14% | half-life ([5]; oral administration, 10 mg/kg): 512 ± 138 min | MRT ([5]; oral administration, 10 mg/kg): 11.5 ± 4.1 h | Cmax ([5]; oral administration, 10 mg/kg): 1000 ± 195 ng/mL | Tmax ([5]; oral administration, 10 mg/kg, read-out: Time to peak concentration tmax): 2 h | EC50 (dopamine D2 receptors [1]; [6]): 195 nM | Emax (dopamine D2 receptors [1]): 151% | EC50 (dopamine D2 receptors [1]; [7]): 291 nM | Emax (dopamine D2 receptors [2]): 97% | EC50 (dopamine D2 receptors [2]; [9]): 123 nM
SMILES: COc1cccc2c1cc1n2CCN(CC[C@H]2CC[C@H](NC(=O)N(C)C)CC2)C1 [I-C7, 3-(trans-4-(2-(9-methoxy-3,4-dihydropyrazino[1,2-a]indol-2(1H)-yl)ethyl)cyclohexyl)-1,1-dimethylurea]
